The NIST ThermoML archive (doi:10.1021/je050333h)

Assay: cn = amount concentration of the nth substance listed, in mol/dm3
Details: 101 kPa, Liquid; for speed of sound: Sing-around technique in a fixed-path interferometer

CCCCC(CC)COC(=O)CC(C(=O)OCC(CC)CCCC)S(=O)(=O)[O-].[Na+] (stereo not given) [sodium bis(2-ethylhexyl) sulfosuccinate] + CC(C)CC(C)(C)C
Details	kinematic viscosity [m2/s]	mass density [kg/m3]	speed of sound [m/s]
293.15 K, c1 = 0.0993	8.03e-07	704.23	1103.5
293.15 K, c1 = 0.2006	9.05e-07	718.92	1104
293.15 K, c1 = 0.302	1.04e-06	736.65	1105.7
293.15 K, c1 = 0.4037	1.21e-06	754.54	1107.9
293.15 K, c1 = 0.5242	1.52e-06	775.5	1111.5
293.15 K, c1 = 0.6067	1.83e-06	794.1	1115.2
293.15 K, c1 = 0.7046	2.28e-06	812.69	1120.4
293.15 K, c1 = 0.8053	2.96e-06	829.38	1126.2
293.15 K, c1 = 0.9065	4.07e-06	847.23	1133.6
293.15 K, c1 = 1.012	5.97e-06	865.07	1142.4
298.15 K, c1 = 0.0987	7.58e-07	700.09	1082.4
298.15 K, c1 = 0.1994	8.56e-07	714.76	1083.1
298.15 K, c1 = 0.3003	9.87e-07	732.48	1085.1
298.15 K, c1 = 0.4017	1.14e-06	750.77	1087.3
298.15 K, c1 = 0.5213	1.42e-06	771.2	1091.2
298.15 K, c1 = 0.6034	1.67e-06	789.8	1095
298.15 K, c1 = 0.701	2.1e-06	808.51	1100.4
298.15 K, c1 = 0.8013	2.76e-06	825.19	1106.5
298.15 K, c1 = 0.902	3.73e-06	843	1113.8
298.15 K, c1 = 1.007	5.27e-06	860.81	1123
303.15 K, c1 = 0.0981	7.23e-07	695.93	1061.6
303.15 K, c1 = 0.1983	8.13e-07	710.7	1062.4
303.15 K, c1 = 0.2986	9.27e-07	728.39	1064.5
303.15 K, c1 = 0.3988	1.07e-06	745.5	1066.9
303.15 K, c1 = 0.5185	1.32e-06	767	1071.1
303.15 K, c1 = 0.6002	1.56e-06	785.6	1075
303.15 K, c1 = 0.6974	1.93e-06	804.41	1080.5
303.15 K, c1 = 0.7972	2.53e-06	820.98	1086.5
303.15 K, c1 = 0.8975	3.43e-06	838.76	1094.1
303.15 K, c1 = 1.002	4.77e-06	856.54	1103.7
313.15 K, c1 = 0.097	6.55e-07	687.78	1020.3
313.15 K, c1 = 0.1956	7.34e-07	700.9	1021.5
313.15 K, c1 = 0.2946	8.29e-07	718.5	1024
313.15 K, c1 = 0.3949	9.53e-07	738.2	1026.6
313.15 K, c1 = 0.5111	1.17e-06	756.1	1031.3
313.15 K, c1 = 0.5932	1.35e-06	776.5	1035.6
313.15 K, c1 = 0.6899	1.67e-06	795.7	1041.3
313.15 K, c1 = 0.7889	2.12e-06	812.51	1048.1
313.15 K, c1 = 0.8884	2.79e-06	830.24	1055.8
313.15 K, c1 = 0.9921	3.89e-06	847.98	1065.5
323.15 K, c1 = 0.0959	5.95e-07	680.26	979.8
323.15 K, c1 = 0.1937	6.66e-07	694.2	981.2
323.15 K, c1 = 0.2919	7.5e-07	712	984.1
323.15 K, c1 = 0.3904	8.59e-07	729.7	987.1
323.15 K, c1 = 0.505	1.04e-06	747	992.3
323.15 K, c1 = 0.5858	1.19e-06	766.8	996.8
323.15 K, c1 = 0.6822	1.47e-06	786.9	1002.8
323.15 K, c1 = 0.7807	1.83e-06	804.04	1009.9
323.15 K, c1 = 0.8792	2.35e-06	821.7	1018
323.15 K, c1 = 0.982	3.09e-06	839.35	1028
